According to ChEMBL document CHEMBL3588753, “Recent progress in the drug development of coumarin derivatives as potent antituberculosis agents” (2015):
≈ marks a conversion by molar mass, not a printed value.

Test system: Mycobacterium tuberculosis variant bovis
Assay: Antimycobacterial activity against Mycobacterium bovis
Type: functional

Q: `COC(=O)C1C(=O)Oc2ccc(Br)cc2C1C(=O)NC1CCCCC1` (stereo not drawn) was tested. Which MIC did it give?
A: 15.6 µg/mL (≈ 38 µM)

Q: For `CC(C)COC(=O)C1C(=O)Oc2ccccc2C1C(=O)NC1CCCCC1` (stereo not drawn), which MIC is on record?
A: 15.6 µg/mL (≈ 41.8 µM)

Q: How did the MIC turn out when `O=C(OCc1ccc(F)cc1)C1C(=O)Oc2ccc(Br)cc2C1C(=O)NC1CCCCC1` (stereo not drawn) was run?
A: 15.6 µg/mL (≈ 30.9 µM)
